pIC50: −log10 of the molar value.

Chain of TRK A (P04629 33-796): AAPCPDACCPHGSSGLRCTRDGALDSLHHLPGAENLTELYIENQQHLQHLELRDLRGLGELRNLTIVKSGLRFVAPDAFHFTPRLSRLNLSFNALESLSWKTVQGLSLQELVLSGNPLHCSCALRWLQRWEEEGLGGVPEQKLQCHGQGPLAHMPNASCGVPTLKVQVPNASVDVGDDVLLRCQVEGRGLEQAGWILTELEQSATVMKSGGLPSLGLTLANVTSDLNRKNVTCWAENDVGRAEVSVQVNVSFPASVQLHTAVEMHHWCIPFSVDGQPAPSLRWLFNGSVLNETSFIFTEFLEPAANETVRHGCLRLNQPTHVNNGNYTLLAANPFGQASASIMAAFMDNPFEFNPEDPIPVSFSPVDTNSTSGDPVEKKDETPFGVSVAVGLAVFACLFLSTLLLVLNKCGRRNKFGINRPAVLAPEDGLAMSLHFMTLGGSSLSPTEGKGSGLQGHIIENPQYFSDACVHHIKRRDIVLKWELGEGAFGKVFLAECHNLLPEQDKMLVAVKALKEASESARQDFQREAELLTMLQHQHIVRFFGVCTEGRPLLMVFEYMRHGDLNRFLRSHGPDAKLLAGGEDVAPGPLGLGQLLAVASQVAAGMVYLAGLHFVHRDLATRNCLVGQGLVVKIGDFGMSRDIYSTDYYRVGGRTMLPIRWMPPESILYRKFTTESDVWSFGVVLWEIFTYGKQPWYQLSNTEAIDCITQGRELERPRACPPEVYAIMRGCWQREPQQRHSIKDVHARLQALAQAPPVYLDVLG

In the assay the target is TRK A (Homo sapiens (Human), UniProt P04629). Description: HotSpot assay platform, radiometric kinase inhibition. It is filed as biochemical. The following applies: 100 μM ATP, class symbol. The procedure:
The HotSpot assay platform was used to measure kinase/inhibitor interactions as described in Anastassiadis et al., Nat Biotechnol. 29:1039-45, 2011. In brief, for each reaction, kinase and substrate were mixed in a buffer containing 20 mM HEPES (pH 7.5), 10 mM MgCl2, 1 mM EGTA, 0.02% Brij35, 0.02 mg/mL BSA, 0.1 mM Na3VO4, 2 mM DTT, and 1% DMSO. Compounds were then added to each reaction mixture. After a 20-min incubation, ATP (Sigma-Aldrich) and [γ-33P] ATP (PerkinElmer) were added at a final total concentration of 100 μM. Reactions were carried out at room temperature for 2 h and spotted onto P81 ion exchange cellulose chromatography paper (Whatman). Filter paper was washed in 0.75% phosphoric acid to remove unincorporated ATP. The percent remaining kinase activity relative to a vehicle-containing (DMSO) kinase reaction was calculated for each kinase/inhibitor pair. Outliers were identified and removed as described in Anastassiadis et al., Nat Biotechnol. 29:1039-45, 2011. IC50 values were calculated using Prism 5 (GraphPad).
`CC1(C)CCc2ncc(F)cc2C2CCCN2c2ccn3ncc(c3n2)NC1=O` (racemic) [Compound 8-8]: the pIC50 was 6.00 to 7.00.

Turning to `C[C@@H]1CCc2ncc(F)cc2N2CCC[C@H]2c2ccn3ncc(c3n2)C(=O)N1` (single isomer, unassigned) [Compound 16-10], the pIC50 was less than 6.00.

In turn, `C[C@@H]1CCc2ncc(F)cc2N2CCC[C@@H]2c2ccn3ncc(c3n2)C(=O)N1` (single isomer, unassigned) [Compound 16-11] had a pIC50 of less than 6.00.

`C=C1c2ncc(F)cc2[C@H]2[C@@H]3C[C@@H]3CN2c2ccn3ncc(c3n2)C(=O)N[C@@H]1C` (single isomer, unassigned) [Compound 21-4] had a pIC50 of more than 7.00.

As for `C=C1c2ncc(F)cc2[C@@H]2[C@H]3C[C@H]3CN2c2ccn3ncc(c3n2)C(=O)N[C@@H]1C` (single isomer, unassigned) [Compound 21-5], the pIC50 was 6.00 to 7.00.

The compound `C[C@H]1CNC(=O)c2cnn3ccc(nc23)N2C[C@H]3C[C@H]3[C@@H]2c2cc(F)cn1c2=O` (single isomer, unassigned) [Compound 23-3] had a pIC50 of more than 7.00.

On to `C[C@H]1CNC(=O)c2cnn3ccc(nc23)N2C[C@@H]3C[C@@H]3[C@H]2c2cc(F)cn1c2=O` (single isomer, unassigned) [Compound 23-4], for which the pIC50 is less than 6.00.

In the case of `C[C@@H]1CCc2ncc(F)cc2N2CCCN2c2ccn3ncc(c3n2)C(=O)N1` [Compound 1-8, (R,1^3E,1^4E)-3^5-fluoro-6-methyl-7-aza-1(5,3)-pyrazolo[1,5-a]pyrimidine-3(3,2)-pyridina-2(1,2)-pyrazalidinacyclooctaphan-8-one], the pIC50 is more than 7.00.

`C[C@@H]1CCc2ccccc2N2CCCN2c2ccn3ncc(c3n2)C(=O)N1` [Compound 1-17, (R,1^3E,1^4E)-6-methyl-7-aza-1(5,3)-pyrazolo[1,5-a]pyrimidine-2(1,2)-pyrazolidina-3(1,2)-benzacyclooctaphan-8-one] gave a negative logarithm of the IC50 (pIC50) of more than 7.00.

In turn, `C[C@@H]1CCn2cc(F)cc(c2=O)N2CCCN2c2ccn3ncc(c3n2)C(=O)N1` [Compound 3-3] gave a pIC50 of less than 6.00.

`C[C@@H]1CCOc2ncc(F)cc2N2CCCN2c2ccn3ncc(c3n2)C(=O)N1` [Compound 4-3] showed a pIC50 of more than 7.00.

With `C[C@@H]1CCc2ncc(F)cc2N2CCC(=O)N2c2ccn3ncc(c3n2)C(=O)N1` [Compound 5-6], the pIC50 was 6.00 to 7.00.

As for `C[C@@H]1CCc2ncc(F)cc2N2CC3(CC3)CN2c2ccn3ncc(c3n2)C(=O)N1` [Compound 6-10], the pIC50 was more than 7.00.

In turn, `C[C@@H]1CCc2ncc(F)cc2[C@H]2CCCN2c2ccc3ncc(n3n2)C(=O)N1` [Compound 7-11] gave a pIC50 of more than 7.00.

In the case of `C[C@@H]1CCc2ncc(F)cc2[C@@H]2CCCN2c2ccc3ncc(n3n2)C(=O)N1` [Compound 7-12], the pIC50 was less than 6.00.

For the compound `C[C@@H]1/C=C/c2ncc(F)cc2[C@H]2CCCN2c2ccn3ncc(c3n2)C(=O)N1` [Compound 9-7], the pIC50 is more than 7.00.

On to `C[C@@H]1/C=C\c2ncc(F)cc2[C@H]2CCCN2c2ccn3ncc(c3n2)C(=O)N1` [Compound 10-5], for which the pIC50 is more than 7.00.

`C[C@@H]1/C=C\c2ncc(F)cc2[C@@H]2CCCN2c2ccn3ncc(c3n2)C(=O)N1` [Compound 10-6] gave a pIC50 of 6.00 to 7.00.

As to `C=C1c2ncc(F)cc2[C@@H]2CCCN2c2ccn3ncc(c3n2)C(=O)N[C@@H]1C` [Compound 11-5], the pIC50 is less than 6.00.

Regarding `CC1c2ncc(F)cc2[C@H]2CCCN2c2ccn3ncc(c3n2)C(=O)N[C@@H]1C` (some centres unmarked) [Compound 11-6], the pIC50 is more than 7.00.

Compound `C[C@@H]1CCc2cnc(F)cc2C2CCCN2c2ccc3ncc(n3n2)C(=O)N1` (some centres unmarked) [Compound 12-12] showed a pIC50 of less than 6.00.

`C[C@@H]1CCc2ncncc2[C@H]2CCCN2c2ccc3ncc(n3n2)C(=O)N1` [Compound 13-11]: the pIC50 was more than 7.00.

`C[C@@H]1CCc2ncncc2[C@@H]2CCCN2c2ccc3ncc(n3n2)C(=O)N1` [Compound 13-12] showed a pIC50 of 6.00 to 7.00.

Compound `C[C@@H]1CCn2cc(nn2)[C@H]2CCCN2c2ccn3ncc(c3n2)C(=O)N1` [Compound 14-6] gave a pIC50 of less than 6.00.

The compound `C[C@@H]1CCn2cc(nn2)[C@@H]2CCCN2c2ccn3ncc(c3n2)C(=O)N1` [Compound 14-7] gave a pIC50 of less than 6.00.

With `C[C@@H]1CCn2nncc2[C@H]2CCCN2c2ccn3ncc(c3n2)C(=O)N1` [Compound 15-10], the pIC50 is less than 6.00.

`C[C@@H]1CCc2ncc(F)cc2[C@H]2[C@@H]3[C@H](CN2c2ccn4ncc(c4n2)C(=O)N1)C3(C)C` [Compound 17-12]: the pIC50 is less than 6.00.

As for `C[C@@H]1CCc2ncc(F)cc2[C@@H]2[C@H]3[C@@H](CN2c2ccn4ncc(c4n2)C(=O)N1)C3(C)C` [Compound 17-13], the pIC50 is less than 6.00.

Compound `C[C@@H]1CCc2ncc(F)cc2[C@H]2[C@@H]3C[C@@H]3CN2c2ccn3ncc(c3n2)C(=O)N1` [Compound 18-11] showed a pIC50 of more than 7.00.

Compound `C[C@@H]1CCc2ncc(F)cc2[C@@H]2[C@H]3C[C@H]3CN2c2ccn3ncc(c3n2)C(=O)N1` [Compound 18-12] had a pIC50 of less than 6.00.

As for `O=C1NC2(CCc3ncc(F)cc3[C@H]3[C@@H]4C[C@@H]4CN3c3ccn4ncc1c4n3)CC2` [Compound 19-5], the pIC50 is more than 7.00.

In turn, `O=C1NC2(CCc3ncc(F)cc3[C@@H]3[C@H]4C[C@H]4CN3c3ccn4ncc1c4n3)CC2` [Compound 19-6] gave a pIC50 of less than 6.00.

The compound `O=C1N[C@H](C2CC2)CCc2ncc(F)cc2[C@H]2[C@@H]3C[C@@H]3CN2c2ccn3ncc1c3n2` [Compound 20-5] showed a pIC50 of more than 7.00.

Regarding `O=C1N[C@H](C2CC2)CCc2ncc(F)cc2[C@@H]2[C@H]3C[C@H]3CN2c2ccn3ncc1c3n2` [Compound 20-6], the pIC50 was less than 6.00.

Turning to `C[C@H]1CNC(=O)c2cnn3ccc(nc23)N2C[C@H]3C[C@H]3[C@@H]2c2cc(F)cnc2O1` [Compound 22-6], the pIC50 is more than 7.00.

For the compound `C[C@H]1CNC(=O)c2cnn3ccc(nc23)N2C[C@@H]3C[C@@H]3[C@H]2c2cc(F)cnc2O1` [Compound 22-7], the pIC50 was less than 6.00.

The compound `C[C@@H]1CCc2ncc(F)cc2[C@H]2[C@H]3[C@@H](CN2c2ccn4ncc(c4n2)C(=O)N1)C3(C)C` [Compound 24-10] had a pIC50 of more than 7.00.

In turn, `C[C@@H]1CCc2ncc(F)cc2[C@@H]2[C@@H]3[C@H](CN2c2ccn4ncc(c4n2)C(=O)N1)C3(C)C` [Compound 24-11] gave a pIC50 of less than 6.00.

These data come from patent US11098046B2, “Macrocyclic compounds as TRK kinase inhibitors and uses thereof” (ANGEX PHARMACEUTICAL, INC., priority 2017, dated 2021).
